Values of other authors in US20060089343A1, “Superoxide dismutase mimics for the treatment of ocular disorders and diseases” (ALCON, INC., priority 2002, published 2006).

Experiments:
[1] = albino rats
[2] = diabetogenic T-cell clone
IL-6 and MIP-2 = conditions: administration after induction of cerebral ischemia
[3] = given either before or after induction of cerebral ischemia
[4] = diabetic rats

CC1(C)CC(O)CC(C)(C)N1[O] [4-hydroxy-2,2,6,6-tetramethylpiperidine-1-oxyl]
light-induced retinal damage [1]: inhibited light-induced retinal damage

CCN1C=CC=C/C1=C1/C2=NC(=C(c3cccc[n+]3CC)C3=NC(=C(c4cccc[n+]4CC)c4ccc([n-]4)C(c4cccc[n+]4CC)=C4C=CC1=N4)C=C3)C=C2.[Cl-].[Cl-].[Cl-].[Cl-].[Cl-].[Mn+3] [AEOL10113]
onset of diabetes [2]: delay the onset of diabetes

CCn1cc[n+](CC)c1C1=C2C=CC3=[N+]2[Mn]24[n]5c1ccc5C(c1n(CC)cc[n+]1CC)=C1C=CC(=[N+]12)C(c1n(CC)cc[n+]1CC)=c1ccc([n]14)=C3c1n(CC)cc[n+]1CC [Compound 1]
expression of pro-inflammatory proteins, such as IL-6 and MIP-2 (IL-6 and MIP-2): attenuation of the increased expression

CC[n+]1ccccc1C1=C2C=CC3=[N+]2[Mn]24[n]5c1ccc5C(c1cccc[n+]1CC)=C1C=CC(=[N+]12)C(c1cccc[n+]1CC)=c1ccc([n]14)=C3c1cccc[n+]1CC [Compound 2]
infarct volume [3]: reduces infarct volume

[Cl-].[Cl-].[Mn+2].c1cc2nc(c1)CN[C@@H]1CCCC[C@H]1NCCN[C@@H]1CCCC[C@H]1NC2 [Compound M40403]
vascular and neural dysfunction [4]: prevented vascular and neural dysfunction
